These results are taken from ChEMBL document CHEMBL3045960 (Pest Manag Sci, 2011).

Molecules are shown by their SMILES. ≈ marks a conversion by molar mass, not a printed value.

This experiment concerns Fusarium graminearum. The experiment is described as follows: Fungicidal activity against Fusarium graminearum 2021 assessed as mycelial growth inhibition after 3 days. Type of experiment: functional, organism-based. Particulars: Fusarium graminearum, 2021, 72 h.
Regarding `CCCCNC(=O)n1c(NC(=O)OC)nc2ccccc21` [BENOMYL], the EC50 is 0.61 µg/mL (≈ 2.1 µM).

Regarding `c1ccc2[nH]c(-c3cscn3)nc2c1` [THIABENDAZOLE], the EC50 is 1.13 µg/mL (≈ 5.61 µM).

Turning to `COC(=O)NC(=S)Nc1ccccc1NC(=S)NC(=O)OC` [THIOPHANATE METHYL], the EC50 is 11 µg/mL (≈ 32.2 µM).
